# Patent publication US8853264B2, “Use of lignan compounds for treating or preventing inflammatory disease” (Newtree Industry Co., Ltd., priority 2005, dated 2014)
# Key:
# eosinophils = test: Counting of immune cells in bronchioalveolar lavage (BAL) fluid, asthma model; format: in vivo, C57BL/6 (B6) male mice; settings: oral 400 μg/g and 800 μg/g
# Method: 5 μL of allergen, AP (aspergillus protease, 1 mg/mL, Sigma-Aldrich, St. Louis, Mo.) was mixed with 45 μL of OVA (chicken egg ovalbumin, 0.5 mg/mL, Sigma-Aldrich). After 3 intraperitoneal injections with 4-day intervals, asthma was induced by 2 intranasal challenges with 4-day interval. The intranasal challenge was performed under isoflurane inhalational anesthesia. Macelignan dissolved in corn oil was orally administered every day.
# Within 24 hours after the last allergen challenge, the mouse was anesthetized by intraperitoneal injection of 0.1 mg/g sodium pentobarbital. After tracheal intubation, flexiVent (Scireq®, Montreal, Canada) was connected to maintain stable ventilation. Thereafter, striated muscle was relaxed by intravenous (IV) administration of 0.08 mg/kg pancuronium (Sigma-Aldrich). Following airway hypersensitivity test by IV administration of acetylcholine (Sigma-Aldrich), 1 mL of DPBS (Dulbecco's phosphate buffered saline) was injected twice into the intubation tube using a syringe for bronchioalveolar lavage. Thereafter, the chest was opened and the lungs were subjected to ELISpot assay. […]
# When asthma is induced, various inflammatory cells increase in the airway. […] After performing BAL once again and collecting the BAL fluid, its volume was measured. […]
# TNF-α mRNA = TNF-α mRNA level in skin lesion (RT-PCR); format: in vivo, NC/Nga mice
# Method: In order to induce atopic dermatitis, 100 mg of mite antigen cream was applied on the ear, occipital region and back of NC/Nga mouse (9 to 11 weeks old), except for the negative control group, 3 times a week, 2 hours after the application of 4% SDS solution. Three weeks later, it was observed whether atopic dermatitis was induced by checking skin rash, erythema, cornification, or the like. Atopic dermatitis was induced in all groups except for the negative control group. […] Transepidermal water loss (TEWL), skin hydration and erythema index were measured one day before the end of the test. […]
# After the end of the experiment, skin tissue was isolated from the occipital region to the back of the mouse, immersed in liquid nitrogen, pulverized using a mortar, dissolved in 500 μL of TRIzol® (InvitrogenLife Technologies, USA), and then homogenized using a homogenizer in order to measure mRNA level of cytokines in skin lesion. […] After the centrifuge, the supernatant was discarded and the remaining pellets were washed 2 times with 100% ethanol, dried, and then subjected to RNA quantification by spectrophotometry. […]
# IgE = test: Total IgE in serum, mite antigen-induced atopic dermatitis; format: in vivo, NC/Nga mice; settings: for IgE: 2 weeks, serum; for total IgE level compared to the positive control group: p<0.01
# Method: 8-week-old NC/Nga mice (20-25 g) were purchased from Chungang Lab. Animal. After adapting for 1 week, the NC/Nga mouse was anesthetized with 90% ethyl ether (Ducsan, Korea) and hair was removed from the occipital region and the back of the mouse using depilatory cream (Reckitt Benckiser, France). After allowing micro wound healing for a day, 100 mg of mite antigen cream (Biostir, Inc. Japan) comprising Dermatophagoides farina, which causes atopic dermatitis, as a main ingredient was evenly applied on the ear, occipital region and back, 3 times a week (for 5 weeks, from week 9 to week 13). 2 hours before application of the mite antigen cream, 4% SDS solution was applied at the same area to increase transdermal absorption of the mite antigen cream by inducing the breakdown of skin fats and cuticle layer. From week 3 following the application, IgE value was measured to quantitate the degree of atopic dermatitis. Also during the drug treatment period (week 12 to week 13), 100 mg of the mite antigen cream was applied 3 times a week to prevent spontaneous healing of the atopic dermatitis.
# In order to induce atopic dermatitis, 100 mg of mite antigen cream was applied on the ear, occipital region and back of NC/Nga mouse (9 to 11 weeks old), except for the negative control group, 3 times a week, 2 hours after the application of 4% SDS solution. Three weeks later, it was observed whether atopic dermatitis was induced by checking skin rash, erythema, cornification, or the like. Atopic dermatitis was induced in all groups except for the negative control group. For drug treatment and evaluation of therapeutic effect, mice were grouped into 12 groups, 6 oral administration groups and 6 topical application groups (each consisting of negative control group, positive control group, macelignan low conc. group, macelignan high conc. group, nutmeg extract low conc. group, and nutmeg extract high conc. group), with n=5 per cage. During the following drug treatment and evaluation period of 2 weeks (12 to 13 weeks old), the negative control groups, which had not been treated with 4% SDS solution and mite antigen cream, were treated with physiological saline (oral administration group) or base cream (topical application group) every day, and the positive control groups, which had been treated with 100 mg of mite antigen cream 2 hours after application of 4% SDS solution, 3 times every week, were treated with physiological saline (oral administration group) or base cream (topical application group). The oral administration groups were treated with 100 mg of mite antigen cream 2 hours after application of 4% SDS solution, 3 times every week, and were treated with macelignan or nutmeg extract at low concentration (50 mg/kg/day) or high concentration (150 mg/kg/day) every day. The topical application groups were treated with 100 mg of mite antigen cream 2 hours after application of 4% SDS solution, 3 times every week, and were treated with macelignan cream or nutmeg extract cream at low concentration (20 mg/kg/day) or high concentration (60 mg/kg/day) every day. Transepidermal water loss (TEWL), skin hydration and erythema index were measured one day before the end of the test. Serum was obtained by retro-orbital blood sampling. After the end of the test (14 weeks old) spleen and skin tissues from occipital region and back were sampled and stored at −70° C. ALN (axillary lymph node) was stored in DMEM containing 2% FBS (fetal bovine serum). The skin tissues were stored in 10% formalin solution.
# Blood was taken by retro-orbital blood sampling using a capillary tube (Chase Scientific Glass, Inc., USA), which was centrifuged at 13,000 rpm to obtain serum. IgE level was measured using a mouse IgE ELISA kit (Immunology Consultants Laboratory, Inc., USA).
# [1] = oral administration 50 and 150 mg/kg
# [2] = topical application 20 and 60 mg/kg
compound,measurement,setting,value
"COc1cc(C[C@H](C)[C@H](C)Cc2ccc3c(c2)OCO3)ccc1O (single isomer, unassigned) [macelignan]",other immune cells in the BAL fluid,eosinophils,Decrease of other immune cells was not observed
same,eosinophils in the BAL fluid,eosinophils; vs vehicle (corn oil) group,decreased eosinophils
same,TNF-α mRNA level in skin lesion,TNF-α mRNA; [1],statistically significant effect of decreasing TNF-α mRNA level
same,TNF-α mRNA level in skin lesion,TNF-α mRNA; [2],effect of decreasing TNF-α mRNA level
same,IgE,IgE; oral administration 50 mg/kg/day,19.6 ± 13.5 µg/mL
same,IgE,IgE; oral administration 150 mg/kg/day,16.6 ± 5.3 µg/mL
same,total IgE level compared to the positive control group,IgE; [1],statistically significant decrease in total IgE level
same,total IgE level compared to the positive control group,IgE; [2],statistically significant decrease in total IgE level
same,IgE,IgE; topical application (cream) 20 mg/kg/day,22.1 ± 3.6 µg/mL
same,IgE,IgE; topical application (cream) 60 mg/kg/day,18.6 ± 4.1 µg/mL
